Results on four molecules are retold here after article PMC5884524, “A high content, high throughput cellular thermal stability assay for measuring drug-target engagement in living cells” (PLoS ONE, 2018).

Where “and” joins values, the source holds several entries; their conditions need not be identical. Identical values can stand only once. Like-named read-outs stand apart in the source and are kept apart here. Peptide text beside a SMILES is read from it. * marks the point of attachment. Cbz = O=C(OCc1ccccc1)*

The target of experiment [1] is T1, Chk1 (Homo sapiens, UniProt O14757).
T1 sequence (O14757 1-476): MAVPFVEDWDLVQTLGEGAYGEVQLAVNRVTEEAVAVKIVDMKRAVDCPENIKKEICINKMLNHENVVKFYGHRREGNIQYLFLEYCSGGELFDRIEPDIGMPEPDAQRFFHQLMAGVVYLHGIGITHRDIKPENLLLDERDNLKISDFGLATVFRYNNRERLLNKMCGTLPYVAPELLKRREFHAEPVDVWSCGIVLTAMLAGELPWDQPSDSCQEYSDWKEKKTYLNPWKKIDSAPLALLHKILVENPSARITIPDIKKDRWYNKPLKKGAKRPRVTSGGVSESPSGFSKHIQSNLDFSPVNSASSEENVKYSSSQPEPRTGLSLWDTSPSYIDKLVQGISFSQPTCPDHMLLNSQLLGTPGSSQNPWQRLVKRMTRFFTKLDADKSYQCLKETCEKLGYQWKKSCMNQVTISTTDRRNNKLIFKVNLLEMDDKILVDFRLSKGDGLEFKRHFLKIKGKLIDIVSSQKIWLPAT
The experiment is described as follows: HCIF-CETSA (CETSA by immunofluorescence), low well volume heating, HT29 cells. The note with it: for EC50: 25 μL media. The arrangement: Thermal response profile of Chk1 in HT29 cells detected by immunofluorescent imaging with the EP691Y antibody; endogenous in cells; host or cells: HT29. Format: cell-based. As for the experimental part: Compounds were serially diluted in DMSO to 200-times the final assay concentration then diluted 1:200 in media (without FCS). The cell media was removed and replaced with 25 μL of compound in media and incubated at 37°C, 5% CO2 for 10 minutes. The plate was sealed with an aluminum plate seal and heated by floating in a pre-heated water bath (Grant Instruments W14) for 3 minutes. 75 μL of room temperature media (without FCS or compound) was added and the plate incubated at room temperature for 5 minutes. […] Plates were imaged on an Operetta high content imager using a 20x objective and analyzed using Harmony software.

The target in experiment [2] is T1, Chk1. The experiment is described as follows: Chk1 autophosphorylation (pS296) by immunoblotting and densitometry, HT29 cells. Format: cell-based. Details: Thermal response profile of Chk1 in HT29 cells detected by immunofluorescent imaging with the EP691Y antibody; endogenous in cells; host or cells: HT29. To be noted: for IC50: HT29, 10 min. As for the experimental part:
(§1) Immunoblotting was conducted as previously described.

For a further experiment, the system named is HT29 cells. The experiment is described as follows: S-phase arrest by Hoechst 33342 imaging, HT29 cells. Format: cell-based, human. To be noted: HT29, 2.5 mM for 18 hours, n = 6 wells ± SD. The procedure:
(§2) Single cell immunofluorescent imaging was conducted as previously described in CellCarrier 96WP or CellCarrier Ultra 96WP (6005550 or 6055300, Perkin Elmer) and imaged on an Operetta high content imager (Perkin Elmer) using a 10, 20 or 40x objective then analyzed using Harmony software (Perkin Elmer).

Experiment [3] addresses T1, Chk1. The experiment is described as follows: Nuclear pChk1 (S317, S345) by single cell immunofluorescence, HT29 cells. Format: cell-based. Details: Thermal response profile of Chk1 in HT29 cells detected by immunofluorescent imaging with the EP691Y antibody; endogenous in cells; host or cells: HT29. To be noted: HT29, 2.5 mM for 18 hours. As for the experimental part: as §2

The target of experiment [4] is T1, Chk1. The experiment is described as follows: HCIF-CETSA (CETSA by immunofluorescence), low well volume heating, U2OS cells. Format: cell-based. To be noted: 10 min. The procedure: 10 000 cells were plated per well of a CellCarrier Ultra 96WP (6055300, Perkin Elmer) and allowed to adhere overnight. Compounds were serially diluted in DMSO to 200-times the final assay concentration then diluted 1:200 in media (without FCS). The cell media was removed and replaced with 25 μL of compound in media and incubated at 37°C, 5% CO2 for 10 minutes. The plate was sealed with an aluminum plate seal and heated by floating in a pre-heated water bath (Grant Instruments W14) for 3 minutes. 75 μL of room temperature media (without FCS or compound) was added and the plate incubated at room temperature for 5 minutes. Cells were fixed by the addition of 100 μL paraformaldehyde (7.4% in PBS) at room temperature for 15 minutes. Cells were washed 3 times with PBS and Chk1 detected with anti-Chk1 rabbit EP691Y monoclonal antibody (Ab40866, Abcam) and an AlexaFluor488 anti-rabbit secondary antibody (A-11034, Thermo Fisher Scientific). Plates were imaged on an Operetta high content imager using a 20x objective and analyzed using Harmony software.

The target in experiment [5] is T1, Chk1. The experiment is described as follows: Chk1 autophosphorylation (pS296) by immunoblotting and densitometry, U2OS cells. Format: cell-based. To be noted: 10 min, identical cellular conditions to HCIF-CETSA (Fig 6E). The procedure: as §1
On the technique in general: Immunoblotting shows a protein as a band on a membrane.

In experiment [6] the target is T1, Chk1. The arrangement: endogenous in cells. The note with it: U2OS cells; read-out: CETSA classic EC50; cited from earlier work.
Experiment [7] concerns the target T1, Chk1. The experiment is described as follows: Chk1 thermal stability by immunofluorescence, PBS immersion heating, HT29 cells. Format: cell-based. Details: Thermal response profile of Chk1 in HT29 cells detected by immunofluorescent imaging with the EP691Y antibody; endogenous in cells; host or cells: HT29. The note with it: HT29, 1–10 μM for 30 minutes, heated to 46, 49, 52 or 55°C.
Source text: (§3) Plates were heated as follows: (i) sealed with adhesive aluminum PCR plate foil and then floated or submerged in a water bath (Grant Instruments W14) containing water pre-heated to the desired temperature or (ii) 1 L of DPBS containing magnesium and calcium (D1283, Sigma) was placed in a clean water bath (SUB6, Grant Instruments) and heated to the required temperature. The media was removed from the wells of the CellCarrier plate and the plate submersed in the DPBS so that all wells were full of DPBS and the plate was not touching the bottom of the water bath. The plate was incubated in the DPBS for 3 minutes, removed, the hot DPBS removed and replaced with 100 μL room temperature DPBS and then incubated at room temperature for 5 minutes. In some experiments, the DPBS was substituted for live cell imaging solution (LCIS, 20 mM Hepes, 140 mM NaCl, 2.5 mM KCl, 1.8 mM CaCl2, 1.0 mM MgCl2, pH 7.4).
as §2

In experiment [8] the target is T1, Chk1. The experiment is described as follows: Chk1 thermal stability by immunofluorescence, sealed plate submerged in water bath, HT29 cells. Format: cell-based. The arrangement: Thermal response profile of Chk1 in HT29 cells detected by immunofluorescent imaging with the EP691Y antibody; endogenous in cells; host or cells: HT29. To be noted: HT29, 10 μM for 30 minutes, HU treated or untreated, sealed plate 55°C.
Source text: as §3, §2

For experiment [9], the target named is T1, Chk1. The experiment is described as follows: HCIF-CETSA (CETSA by immunofluorescence), low well volume heating, HT29 cells. Format: cell-based. The arrangement: Thermal response profile of Chk1 in HT29 cells detected by immunofluorescent imaging with the EP691Y antibody; endogenous in cells; host or cells: HT29. The note with it: HT29, 10 minute incubation, 50 μL media, 51°C (Fig 6D).

Experiment [10] addresses T1, Chk1. Details: Thermal response profile of Chk1 in HT29 cells detected by immunofluorescent imaging with the EP691Y antibody; endogenous in cells; host or cells: HT29. The note with it: HT29 cells; read-out: CETSA classic EC50; cited from earlier work.
The mark [11] stands for this setting: HT29, 0–40 μM inhibitor, 10 min, 49°C (Fig 8A), read-out: EC50, decrease in nuclear Chk1 fluorescence following heating.

In general, EC50 refers to the concentration giving half of the maximal effect. A word on the IC50: it is the concentration at which inhibition is half-maximal. For `N#Cc1cc2c(cn1)[nH]c1ncc(-c3ccc(CN4CCCCC4)cc3)cc12` [GNE-900, reference compound], at Chk1 [1] (setting [11]), the EC50 came out at 1300 ± 300 nM. For the same molecule, the IC50 at Chk1 [2] (same dilution series and conditions as HCIF-CETSA (Fig 8B), read-out: IC50, S296 phosphorylation) turned out to be 500 nM.

As to `NC(=O)NO` [HU, Hydroxyurea], the “Cells exhibiting evidence of S-phase arrest” value with HT29 cells is 71.4 ± 0.7%. At Chk1 [3], the “Increase in nuclear Chk1 pS317” value amounted to 1.9 fold and the “Increase in nuclear Chk1 pS345” value was 1.6 fold.

With `CC(C)C[C@@H](C=O)NC(=O)[C@H](CC(C)C)NC(=O)[C@H](CC(C)C)NC(=O)OCc1ccccc1` [MG-132, reference compound] (Cbz-Leu-Leu-Leu-aldehyde), the “Effect on temperature induced decrease in Chk1 nuclear fluorescence” value at Chk1 [1] (HT29, 5 μM for 2 hours, then DMSO or 3 μM V158411, 49 or 52°C) was “did not block”.

Regarding `CN(C)CC(C)(C)COc1ccc2[nH]c(-c3cc(NC(=O)c4cnn(Cc5ccccc5)c4)c[nH]c3=O)cc2c1` [V158411], the EC50 at Chk1 [4] (U2OS, 25 μL media, 49°C (Fig 6C)) was 1400 ± 300 nM; at Chk1 [6], 2300 ± 1200 nM; at Chk1 [1] (setting [11]), 2000 ± 900 nM; on Chk1 [1] (HT29, 10 min, 49°C (Fig 6B), read-out: HCIF-CETSA EC50, mean of three independent experiments), 1700 ± 400 nM; at Chk1 [1] (HT29, 10 min, 49°C (Fig 6B), read-out: HCIF-CETSA EC50, single values of three independent experiments) it was 1900 nM and 1200 nM; at Chk1 [1] (HT29, 10 min pre-incubation, heated to 46°C (Fig 6A), read-out: EC50, reduction in Chk1 nuclear immunofluorescence), 1900 nM. Also, the EC50 is 1900 nM on Chk1 [1] (HT29, 10 min pre-incubation, heated to 49°C (Fig 6A), read-out: EC50, reduction in Chk1 nuclear immunofluorescence); 2500 nM at Chk1 [1] (HT29, 10 min pre-incubation, heated to 52°C (Fig 6A), read-out: EC50, reduction in Chk1 nuclear immunofluorescence); 1000 nM at Chk1 [9]; 3300 ± 3400 nM at Chk1 [10]. For the same molecule, the “Effect on mean nuclear Chk1 fluorescence in unheated cells” value on Chk1 [4] (unheated U2OS, 0–20 μM) was “increased the mean nuclear Chk1 fluorescence”. Further, the IC50 at Chk1 [5] is roughly 110 nM; at Chk1 [2] (identical cellular conditions to HCIF-CETSA (Fig 6E), read-out: IC50, Chk1 autophosphorylation (pS296)), roughly 160 nM. Besides, at Chk1 [2] (HT29, 0–10 μM for 30 minutes, HU treated and untreated cells (Fig 4B)), the “Effect on Chk1 autophosphorylation” value is reported as “inhibited Chk1 autophosphorylation”. Moreover, at Chk1 [7], the “Effect on mean nuclear Chk1 intensity after PBS immersion heating” value is on record as “did not alter the mean nuclear Chk1 intensity”. The “Effect on thermostabilization of total Chk1 or phosphorylated Chk1” value on Chk1 [8] is listed as “no effect”.
